Measurements taken from patent publication US7893263B2, “Structural analogs of corosolic acid having anti-diabetic and anti-inflammatory properties” (Laila Nutraceuticals, priority 2004, dated 2011).

What was measured:
[1] = test system: Brine shrimp (Artemia salina) nauplii; assay: in vivo; conditions: 24 h at 37° C., 10 nauplii per vial
Protocol: Brine shrimp lethality: Brine shrimp (Artemia salina) nauplii were hatched using brine shrimp eggs in a conical shaped vessel (1 L), filled with sterile artificial sea water (prepared using sea salt 38 g/L and adjusted to pH 8.5 using 1 N NaOH) under constant aeration for 48 h. After hatching, 10 nauplii were drawn through a pepette and placed in each vial containing 4.5 mL brine solution and added various concentrations of drug solutions and volume was made upto 5 mL using brine solution and maintained at 37° C. for 24 h under the light of incandescent lamps and surviving larvae were counted. Each experiment was conducted along with control (vehicle treated), at various concentrations of the test substance in each set that contains 6 tubes and the average results are reported. The percentage lethality was determined by comparing the mean mortal larvae of test and control tubes. LC50 values were obtained from the plot of concentration (μg) vs. percentage lethality. Podophyllotoxin was used as a positive control.
The corosolic acid analogs of this invention are found to show significant brine shrimp lethality (Table 3; brine shrimp lethality is expressed in LC50 at μM concentration; lower the LC50 value, higher is the activity).

5-Lipoxygenase = 5-Lipoxygenase inhibitory activity, colorimetric method (ferric xylenol orange, linoleic acid); type: biochemical
Protocol: 5-Lipoxygenase activity: The corosolic acid analogs were screened for their 5-Lipoxygenase inhibitory potential using colorimetric method. The assay mixture contained 50 mM phosphate buffer pH 6.3, 5-Lipoxygenase, various concentrations of test substances in dimethyl sulphoxide and linoleic acid in a total volume of 0.5 mL, after 5 min incubation of above reaction mixture, 0.5 mL ferric xylenol orange reagent was added and OD was measured after two minutes at 585 nm using spectrophotometer. Controls were run along with test in a similar manner except using vehicle instead of test substance solution. Percent inhibition was calculated by comparing absorbance of test solution with that of control.
The corosolic acid analogs of this invention are found to show good 5-lipoxygenase activity (Table 2; 5-lipoxygenase activity is expressed in % of inhibition at 100 μM and 250 μM; higher the % inhibitory values, higher is the activity).

Albino wistar rats = assay: Hypoglycemic activity: inhibition of sucrose-induced raise in serum glucose levels (SGL); type: in vivo; parameters: Inhibitory rate (serum glucose level inhibitory rate): unit not given here; conditions: oral dose 1 mg/Kg; for SGL (mean ± SE): 20 mL/kg of 20% sucrose orally after 30 minutes, blood drawn one hour after treatment, groups of six rats; for Inhibitory rate (serum glucose level inhibitory rate): mean increase in serum glucose levels of treated vs control groups
Protocol: Hypoglycemic activity: Hypoglycemic activity was tested by the inhibition of sucrose-induced raise in serum glucose levels (SGL), by the test substances in Albino wistar rats. The procedure involves fasting the rats for overnight at ad libitum water, numbered weighed and randomly divided into groups of six animals each. Prior to treatment blood samples were drawn from sinus orbital plexus of all animals using heparin coated glass capillaries under mild ether anesthesia. The blood samples were tested for serum glucose levels using enzymatic GOD/POD method. […] SGL=(test OD/Standard OD)×100 and the results were expressed in mg/dL. All the groups were treated orally with corresponding test substances, standard, vehicle (5% gum acacia). After 30 minutes, all animals were given 20 mL/kg of 20% sucrose solution orally using gastric tube. One hour after treatment, blood samples were drawn again under mild ether anesthesia and tested for serum glucose levels in a same procedure as described above for initial serum glucose estimation. The data was subjected to statistical treatment using t-test and inhibitory rate was calculated by comparing mean increase in serum glucose levels of control and treated groups. The corosolic acid analogs of this invention are found to show better hypoglycemic activity (Table 1; hypoglycemic activity is expressed in serum glucose level inhibitory rate values; higher the inhibitory rate value, higher is the activity) than the corosolic acid.

Compound	LC50 [1]	% inhibition of 5-Lox activity (5-Lipoxygenase; 250 μM)	% inhibition of 5-Lox activity (5-Lipoxygenase; 100 μM)	SGL (mean ± SE) (Albino wistar rats)	Inhibitory rate (serum glucose level inhibitory rate) (Albino wistar rats)
Methyl diacetylcorosolate [Compound 14]	42.1 µM	1.9%	–	–	–
3-O-acetyl-11-keto-β-boswellic acid [AKBA, reference compound]	–	25.3%	17.45%	–	–
COC(=O)C12CCC(C)C(C)C1C1=CCC3C4(C)CC(OC(=O)C=Cc5cc(OC)c(OC)c(OC)c5)C(O)C(C)(C)C4CCC3(C)C1(C)CC2 (stereo not drawn) [Compound 6, Methyl 2-O-(3,4,5-trimethoxycinnamoyl)corosolate]	> 200 µM	13.47%	–	114.15 ± 6.62 mg/dL	21.94
CC1CCC23CCC4(C)C(=CC(OC2=O)C2C5(C)CC(O)C(O)C(C)(C)C5CCC24C)C3C1C (stereo not drawn) [Compound 26, 2α,3β-Dihydroxyurs-12-en-11,28-olide]	87 µM	10.47%	–	136.03 ± 4.43 mg/dL	6.97
CC1CCC2(C(=O)NCCO)CCC3(C)C(=CCC4C5(C)CC(O)C(O)C(C)(C)C5CCC43C)C2C1C (stereo not drawn) [Compound 12, N-(2-Hydroxyethyl)corosolamide]	> 100 µM	32.96%	17.74%	103.49 ± 7.12 mg/dL	36.47
Methyl diacetyl-11-ketocorosolate [Compound 16]	82.3 µM	3.82%	–	–	–
2-O-Acetylcorosolic acid and 3-O-acetylcorosolic acid [Compound 1]	9.7 µM	24.05%	15.47%	109.54 ± 2.80 mg/dL	32.75
CC1CCC2(C(=O)NCCN)CCC3(C)C(=CCC4C5(C)CC(O)C(O)C(C)(C)C5CCC43C)C2C1C (stereo not drawn) [Compound 10, N-(2-Aminoethyl)corosolamide]	97.2 µM	40.87%	21.74%	113.57 ± 3.80 mg/dL	30.28
COc1cc(C(=O)OC(=O)C23CCC(C)C(C)C2C2=CCC4C5(C)CC(O)C(O)C(C)(C)C5CCC4(C)C2(C)CC3)cc(OC)c1OC (stereo not drawn) [Compound 25, Corosolyl tri-O-methylgallate]	> 200 µM	38.83%	–	131.84 ± 7.77 mg/dL	9.84
CC1CCC2(C(=O)O)CCC3(C)C(=CCC4C5(C)CC6OS(=O)(=O)OC6C(C)(C)C5CCC43C)C2C1C (stereo not drawn) [Compound 7, 2α,3β-Dihydroxyurs-12-en-28-oic acid 2,3-cyclicsulphate]	15 µM	16.90%	–	–	–
Corosolinol [Compound 23]	30.7 µM	19.63%	2.91%	113.06 ± 2.61 mg/dL	30.59
CC1CCC2(C(=O)O)CCC3(C)C(=CCC4C5(C)CC(OC(=O)c6cccnc6)C(O)C(C)(C)C5CCC43C)C2C1C (stereo not drawn) [Compound 3, 2-O-Nicotinoylcorosolic acid]	86.6 µM	53.19%	28.54%	115.86 ± 3.77 mg/dL	13.9
COC(=O)[C@]12CC[C@@H](C)[C@H](C)[C@H]1C1=CC(=O)[C@@H]3[C@@]4(C)C[C@@H](O)[C@H](O)C(C)(C)[C@@H]4CC[C@@]3(C)[C@]1(C)CC2 [Compound 15, Methyl 11-ketocorosolate]	40.9 µM	25.09%	–	120.79 ± 4.85 mg/dL	17.4
CC1CCC2(C(=O)N3CCNCC3)CCC3(C)C(=CCC4C5(C)CC(O)C(O)C(C)(C)C5CCC43C)C2C1C (stereo not drawn) [Compound 11, N-(Corosolyl)piperazine]	9.2 µM	64.99%	35.42%	107.88 ± 4.61 mg/dL	19.83
CC(=O)OC1CC2(C)C(CCC3(C)C2C(=O)C=C2C4C(C)C(C)CCC4(C(=O)O)CCC23C)C(C)(C)C1OC(C)=O (stereo not drawn) [Compound 18, Diacetyl-11-ketocorosolic acid]	87.7 µM	–	–	–	–
COC(=O)C12CCC(C)C(C)C1C1=CC(O)C3C4(C)CC(O)C(O)C(C)(C)C4CCC3(C)C1(C)CC2 (stereo not drawn) [Compound 22, Methyl 11-hydroxycorosolate]	19.9 µM	49.40%	24.56%	–	–
CC1CCC2(C(=O)O)CCC3(C)C(=CCC4C5(C)CC(OC(=O)CN)C(O)C(C)(C)C5CCC43C)C2C1C.Cl (stereo not drawn) [Compound 4, 2-O-Glycylcorosolic acid hydrochloride]	3.9 µM	27.83%	17.04%	119.23 ± 9.58 mg/dL	26.8
COC(=O)[C@]12CC[C@@H](C)[C@H](C)[C@H]1C1=CC[C@@H]3[C@@]4(C)C[C@@H](O)[C@H](O)C(C)(C)[C@@H]4CC[C@@]3(C)[C@]1(C)CC2 [Compound 13, Methyl corosolate]	10.2 µM	40.04%	17.3%	118.94 ± 8.61 mg/dL	11.6
C[C@H]1[C@H](C)CC[C@]2(C(=O)O)CC[C@]3(C)C(=CC(=O)[C@@H]4[C@@]5(C)C[C@@H](O)[C@H](O)C(C)(C)[C@@H]5CC[C@]43C)[C@H]12 [Compound 17, 11-Ketocorosolic acid]	–	–	–	120.90 ± 9.66 mg/dL	25.78
C[C@H]1[C@H](C)CC[C@]2(C(=O)Nc3ccccc3)CC[C@]3(C)C(=CC[C@@H]4[C@@]5(C)C[C@@H](O)[C@H](O)C(C)(C)[C@@H]5CC[C@]43C)[C@H]12 [Compound 9, N-Phenylcorosolamide]	> 100 µM	21.77%	8.16%	117.97 ± 0.37 mg/dL	27.58
CC(=O)O[C@@H]1C[C@]2(C)[C@H]3CC=C4[C@@H]5[C@@H](C)[C@H](C)CC[C@]5(C(=O)O)CC[C@@]4(C)[C@]3(C)CC[C@H]2C(C)(C)[C@H]1OC(C)=O [Compound 2, 2,3-Di-O-acetylcorosolic acid]	1.8 µM	44.54%	20.08%	–	–
C[C@H]1[C@H](C)CC[C@]2(C(N)=O)CC[C@]3(C)C(=CC(=O)[C@@H]4[C@@]5(C)C[C@@H](O)[C@H](O)C(C)(C)[C@@H]5CC[C@]43C)[C@H]12 [Compound 20, 11-Ketocorosolamide]	> 100 µM	42.79%	18.57%	142.81 ± 7.30 mg/dL	12.33
C[C@H]1[C@H](C)CC[C@]2(C(N)=O)CC[C@]3(C)C(=CC(O)[C@@H]4[C@@]5(C)C[C@@H](O)[C@H](O)C(C)(C)[C@@H]5CC[C@]43C)[C@H]12 (stereo partly drawn) [Compound 21, 11-Hydroxycorosolamide]	> 100 µM	50.83%	25.57%	121.57 ± 2.62 mg/dL	25.37
CC(Cc1ccc(O)c(O)c1)C(C)Cc1ccc(O)c(O)c1 (stereo not drawn) [NDGA, Nordihydroguaiaretic acid, reference compound]	–	91.55%	70.4%	–	–
